Where a name gives a salt, the structure may show the parent alone.
Legend:
Assay type in all cases: biochemical
Bovine LOX = Bovine LOX (Bos taurus (Bovine), UniProt P33072); assay: LOX inhibition, Amplex Red oxidation assay; conditions: 30 min preincubation at 37 °C, putrescine substrate
Text: Lysyl oxidase (LOX) is an extracellular copper dependent enzyme which oxidizes peptidyl lysine and hydroxylysine residues in collagen and lysine residues in elastin to produce peptidyl alpha-aminoadipic-delta-semialdehydes. […] There are five LOX family members; these are LOX, LOXL1, LOXL2, LOXL3 and LOXL4. LOX and LOXL family members can be acquired as recombinant active proteins from commercial sources, or extracted from animal tissues like bovine aorta, tendons, pig skin; or prepared from cell cultures. The inhibitory effects of the compounds of the present invention were tested against the given LOX-LOXL preparation using a method based on the detection of hydrogen peroxide with an Amplex Red oxidation assay (Zhou et al. A stable nonfluorescent derivative of resorufin for the fluorometric determination of trace hydrogen peroxide: applications in detecting the activity of phagocyte NADPH oxidase and other oxidases. Anal. Biochem. 1997; 253, 162-168). The assay was developed using either 384 or 96 well format. Briefly, in a standard black, clear bottom 384 well plate assay 25 μL of a dilution of any of the isoenzymes and orthologues in 1.2 M urea, 50 mM sodium borate buffer (pH 8.2) were added into each well in the presence of 1 μM mofegiline and 0.5 mM pargyline (to inhibit SSAO and MAO-B and MAO-A, respectively; not necessary if the enzyme is from a recombinant or purified form). […] Twenty five μL of a reaction mixture containing twice the KM concentration of putrescine (Sigma Aldrich, e.g. 20 mM for LOX, or 10 mM for LOXL2 and LOXL3), 120 μM Amplex Red (Sigma Aldrich) and 1.5 U/mL horseradish peroxidase (Sigma Aldrich) prepared in 1.2 M urea, 50 mM sodium borate buffer (pH 8.2) were then added to the corresponding wells. The above volumes were doubled in the case of 96 wells plate. The fluorescence (RFU) was read every 2.5 min for 30 min at […] 37° C., excitation 565 nm and emission 590 (Optima; BMG labtech). The slope of the kinetics for each well was calculated using MARS data analysis software (BMG labtech) and this value was used to deduce the IC50 value (Dotmatics).

LOXL2 = LOXL2 (Homo sapiens (Human), UniProt Q9Y4K0); assay: LOXL2 inhibition, Amplex Red oxidation assay; conditions: 30 min preincubation at 37 °C, putrescine substrate
Text: Lysyl oxidase (LOX) is an extracellular copper dependent enzyme which oxidizes peptidyl lysine and hydroxylysine residues in collagen and lysine residues in elastin to produce peptidyl alpha-aminoadipic-delta-semialdehydes. […] There are five LOX family members; these are LOX, LOXL1, LOXL2, LOXL3 and LOXL4. LOX and LOXL family members can be acquired as recombinant active proteins from commercial sources, or extracted from animal tissues like bovine aorta, tendons, pig skin; or prepared from cell cultures. The inhibitory effects of the compounds of the present invention were tested against the given LOX-LOXL preparation using a method based on the detection of hydrogen peroxide with an Amplex Red oxidation assay (Zhou et al. A stable nonfluorescent derivative of resorufin for the fluorometric determination of trace hydrogen peroxide: applications in detecting the activity of phagocyte NADPH oxidase and other oxidases. Anal. Biochem. 1997; 253, 162-168). The assay was developed using either 384 or 96 well format. Briefly, in a standard black, clear bottom 384 well plate assay 25 μL of a dilution of any of the isoenzymes and orthologues in 1.2 M urea, 50 mM sodium borate buffer (pH 8.2) were added into each well in the presence of 1 μM mofegiline and 0.5 mM pargyline (to inhibit SSAO and MAO-B and MAO-A, respectively; not necessary if the enzyme is from a recombinant or purified form). Test compounds were dissolved in DMSO and tested in a Concentration Response Curve (CRC) with 11 data points, typically in the micromolar or nanomolar range after incubation with the enzyme for 30 min at 37° C. Twenty five μL of a reaction mixture containing twice the KM concentration of putrescine (Sigma Aldrich, e.g. 20 mM for LOX, or 10 mM for LOXL2 and LOXL3), 120 μM Amplex Red (Sigma Aldrich) and 1.5 U/mL horseradish peroxidase (Sigma Aldrich) prepared in 1.2 M urea, 50 mM sodium borate buffer (pH 8.2) were then added to the corresponding wells. The above volumes were doubled in the case of 96 wells plate. The fluorescence (RFU) was read every 2.5 min for 30 min at […] 37° C., excitation 565 nm and emission 590 (Optima; BMG labtech). The slope of the kinetics for each well was calculated using MARS data analysis software (BMG labtech) and this value was used to deduce the IC50 value (Dotmatics).

[1] = molecular target: Human recombinant SSAO/VAP-1 (Homo sapiens (Human), UniProt Q16853); assay: Inhibition of human recombinant SSAO/VAP-1; conditions: 30 min preincubation at 37 °C, benzylamine 600 μM; read-out: SSAO/VAP-1 Activity IC50
Method: Human recombinant SSAO/VAP-1 amine oxidase activity was determined using the coupled colorimetric method as described for monoamine oxidase, copper-containing amine oxidases and related enzymes (Holt A. and Palcic M., A peroxidase-coupled continuous absorbance plate-reader assay for flavin monoamine oxidases, copper-containing amine oxidases and related enzymes. Nat Protoc 2006; 1: 2498-2505). Briefly, a cloned cDNA template corresponding to residues 34-763 of human SSAO/VAP-1, and incorporating a mouse Ig kappa (κ) signal sequence, N-terminal flag epitope tag and tobacco etch virus (TEV) cleavage site, was assembled in a mammalian expression vector (pLO-CMV) by Geneart AG. This vector containing human SSAO/VAP-1 residues was transfected into CHO-Kl glycosylation mutant cell line, Lec 8. A clone stably expressing human SSAO/VAP-1 was isolated and cultured in large scale. Active human SSAO/VAP-1 was purified and recovered using immunoaffinity chromatography. This was used as the source for SSAO/VAP-1 activity. A high-throughput colorimetric assay was developed using either 96 or 384 well format. Briefly, in a standard 96 well plate assay 50 μL of purified human SSAO/VAP-1 (0.25 μg/mL) in 0.1 M sodium phosphate buffer (pH 7.4) was added into each well. Test compounds were dissolved in DMSO and tested in a Concentration Response Curve (CRC) with 4-11 data points, typically in the micromolar or nanomolar range after incubation with human SSAO/VAP-1 for 30 min at 37° C. After 30 min incubation, 50 μL of the reaction mixture containing 600 μM benzylamine (Sigma Aldrich), 120 μM Amplex Red (Sigma Aldrich) and 1.5 U/mL horseradish peroxidase (Sigma Aldrich) prepared in 0.1 M sodium phosphate buffer (pH 7.4) were added to the corresponding well. The fluorescence unit (RFU) was read every 2.5 min for 30 min at 37° C. excitation 565 nm and emission 590 (Optima; BMG labtech). The slope of the kinetics for each well was calculated using MARS data analysis software (BMG labtech) and this value was used to deduce the IC50 value (Dotmatics).

Chain of Human recombinant SSAO/VAP-1 (Q16853 34-763): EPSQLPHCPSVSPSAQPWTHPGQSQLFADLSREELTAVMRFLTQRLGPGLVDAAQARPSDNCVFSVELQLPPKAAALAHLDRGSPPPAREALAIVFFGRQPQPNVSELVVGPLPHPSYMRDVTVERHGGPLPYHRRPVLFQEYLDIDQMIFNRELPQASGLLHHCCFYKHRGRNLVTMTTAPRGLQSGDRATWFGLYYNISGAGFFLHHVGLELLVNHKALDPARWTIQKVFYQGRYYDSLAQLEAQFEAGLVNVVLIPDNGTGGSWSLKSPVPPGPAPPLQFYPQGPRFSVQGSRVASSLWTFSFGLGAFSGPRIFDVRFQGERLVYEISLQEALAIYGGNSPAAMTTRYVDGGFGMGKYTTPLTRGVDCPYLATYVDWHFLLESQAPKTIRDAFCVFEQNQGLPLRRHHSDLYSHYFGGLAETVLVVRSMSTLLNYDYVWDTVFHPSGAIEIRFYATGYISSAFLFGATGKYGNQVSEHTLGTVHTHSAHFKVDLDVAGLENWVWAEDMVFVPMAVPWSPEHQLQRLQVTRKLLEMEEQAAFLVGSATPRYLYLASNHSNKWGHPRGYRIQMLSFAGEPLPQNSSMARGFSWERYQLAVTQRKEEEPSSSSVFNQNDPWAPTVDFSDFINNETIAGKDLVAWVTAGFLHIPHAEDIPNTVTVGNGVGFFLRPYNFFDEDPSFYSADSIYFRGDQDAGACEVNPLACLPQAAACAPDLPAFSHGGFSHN
Chain of LOXL2 (Q9Y4K0 26-774): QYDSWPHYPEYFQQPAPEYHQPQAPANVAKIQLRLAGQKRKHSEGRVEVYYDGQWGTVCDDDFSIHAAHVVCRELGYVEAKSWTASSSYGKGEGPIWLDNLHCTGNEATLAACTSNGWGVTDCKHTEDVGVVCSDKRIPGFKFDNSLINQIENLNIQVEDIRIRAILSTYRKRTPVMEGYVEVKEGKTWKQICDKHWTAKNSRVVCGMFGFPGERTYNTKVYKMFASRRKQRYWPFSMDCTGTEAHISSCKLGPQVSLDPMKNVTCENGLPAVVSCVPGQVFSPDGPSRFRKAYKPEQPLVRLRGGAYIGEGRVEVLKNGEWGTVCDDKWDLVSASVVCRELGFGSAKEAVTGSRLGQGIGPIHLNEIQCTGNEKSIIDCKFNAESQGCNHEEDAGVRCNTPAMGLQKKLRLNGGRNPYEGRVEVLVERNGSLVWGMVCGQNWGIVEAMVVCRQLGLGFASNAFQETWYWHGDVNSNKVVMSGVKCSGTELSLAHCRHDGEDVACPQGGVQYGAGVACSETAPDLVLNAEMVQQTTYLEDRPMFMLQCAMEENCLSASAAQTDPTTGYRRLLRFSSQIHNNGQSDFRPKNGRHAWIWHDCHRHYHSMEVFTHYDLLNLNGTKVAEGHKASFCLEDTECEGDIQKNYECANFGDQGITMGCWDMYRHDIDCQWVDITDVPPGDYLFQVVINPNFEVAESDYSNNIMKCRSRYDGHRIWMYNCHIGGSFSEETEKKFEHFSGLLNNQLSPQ
Chain of Bovine LOX (P33072 170-418): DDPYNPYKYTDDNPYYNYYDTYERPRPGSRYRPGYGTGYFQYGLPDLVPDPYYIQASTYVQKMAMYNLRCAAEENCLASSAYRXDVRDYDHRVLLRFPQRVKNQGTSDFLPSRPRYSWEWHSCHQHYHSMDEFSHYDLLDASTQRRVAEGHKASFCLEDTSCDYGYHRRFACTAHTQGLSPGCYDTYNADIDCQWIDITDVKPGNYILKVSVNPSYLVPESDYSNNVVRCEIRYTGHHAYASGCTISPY

Row | Structure (SMILES) | IC50 (Bovine LOX) | IC50 (LOXL2) | IC50 [1]
1 | NC/C=C(\F)CS(=O)(=O)c1cccc2ccccc12 [Compound 23, (Z)-3-fluoro-4-(naphthalen-1-ylsulfonyl)but-2-en-1-amine hydrochloride] | < 10 µM | < 1000 nM | > 30 µM
2 | NC/C=C(\F)CS(=O)(=O)c1cc(Cl)cc(Cl)c1 [Compound 28, (Z)-4-(3,5-dichlorophenylsulfonyl)-3-fluorobut-2-en-1-amine hydrochloride] | < 10 µM | < 1000 nM | > 30 µM
3 | Cc1[nH]c2c(S(=O)(=O)C/C(F)=C/CN)cccc2c1C [Compound 52, (Z)-4-((2,3-dimethyl-1H-indol-7-yl)sulfonyl)-3-fluorobut-2-en-1-amine hydrochloride] | < 10 µM | < 1000 nM | 
4 | NC/C=C(\F)CS(=O)(=O)c1ccc(Cl)cc1Cl [Compound 25, (Z)-4-(2,4-dichlorophenylsulfonyl)-3-fluorobut-2-en-1-amine hydrochloride] | < 10 µM | < 1000 nM | 
5 | NC/C=C(\F)CS(=O)(=O)c1ccccc1F [Compound 37, (Z)-3-fluoro-4-(2-fluorophenylsulfonyl)but-2-en-1-amine hydrochloride] | < 10 µM | < 1000 nM | 
6 | Cc1ccccc1S(=O)(=O)C/C(F)=C/CN [Compound 40, (Z)-3-fluoro-4-(o-tolylsulfonyl)but-2-en-1-amine hydrochloride] | < 10 µM | < 1000 nM | 
7 | [2H]c1nc2c(S(=O)(=O)C/C(F)=C/CN)c([2H])c([2H])c([2H])c2c([2H])c1[2H] [Compound 53, (Z)-3-fluoro-4-((quinolin-8-yl-d6)sulfonyl)but-2-en-1-amine dihydrochloride] |  |  | > 30 µM
8 | Cc1cccnc1S(=O)(=O)C/C(F)=C/CN [Compound 43, (Z)-3-fluoro-4-(3-methylpyridin-2-ylsulfonyl)but-2-en-1-amine dihydrochloride] | < 10 µM | < 1000 nM | 
9 | Cc1ncccc1S(=O)(=O)C/C(F)=C/CN [Compound 47, (Z)-3-fluoro-4-(2-methylpyridin-3-ylsulfonyl)but-2-en-1-amine dihydrochloride] | < 10 µM | < 1000 nM | 
10 | CC(C)c1ccc(S(=O)(=O)C/C(F)=C/CN)nc1 [Compound 34, (Z)-3-fluoro-4-(5-isopropylpyridin-2-ylsulfonyl)but-2-en-1-amine dihydrochloride] | < 10 µM | < 1000 nM | 
11 | Cc1cc(S(=O)(=O)C/C(F)=C/CN)ccn1 [Compound 44, (Z)-3-fluoro-4-(2-methylpyridin-4-ylsulfonyl)but-2-en-1-amine dihydrochloride] | < 10 µM | < 1000 nM | 
12 | COc1ccccc1S(=O)(=O)C/C(F)=C/CN [Compound 22, (Z)-3-fluoro-4-(2-methoxyphenylsulfonyl)but-2-en-1-amine hydrochloride] | < 10 µM | < 1000 nM | 

Continued, in another order:

Row | IC50 (Bovine LOX) | IC50 (LOXL2) | Structure (SMILES) | IC50 [1]
13 | < 10 µM | < 1000 nM | CC(C)c1ccccc1S(=O)(=O)C/C(F)=C/CN [Compound 21, (Z)-3-fluoro-4-(2-isopropylphenylsulfonyl)but-2-en-1-amine hydrochloride] | 
14 | < 10 µM | < 1000 nM | NC/C=C(\F)CS(=O)(=O)c1ccc2ccccc2c1 [Compound 24, (Z)-3-fluoro-4-(naphthalen-2-ylsulfonyl)but-2-en-1-amine hydrochloride] | 
15 | < 10 µM | < 1000 nM | Cc1cccc(S(=O)(=O)C/C(F)=C/CN)n1 [Compound 36, (Z)-3-fluoro-4-(6-methylpyridin-2-ylsulfonyl)but-2-en-1-amine dihydrochloride] | 
16 | < 10 µM | < 1000 nM | Cc1cccc(S(=O)(=O)C/C(F)=C/CN)c1 [Compound 41, (Z)-3-fluoro-4-(m-tolylsulfonyl)but-2-en-1-amine hydrochloride] | 
17 | < 10 µM | < 1000 nM | NC/C=C(\F)CS(=O)(=O)c1ccccc1-c1ccccc1 [Compound 20, (Z)-4-(biphenyl-2-ylsulfonyl)-3-fluorobut-2-en-1-amine hydrochloride] | 
18 | < 10 µM | < 1000 nM | CC(C)c1ccc(S(=O)(=O)C/C(F)=C/CN)cn1 [Compound 49, (Z)-3-fluoro-4-(6-isopropylpyridin-3-ylsulfonyl)but-2-en-1-amine dihydrochloride] | 
19 | < 10 µM | < 1000 nM | Cc1ccc(S(=O)(=O)C/C(F)=C/CN)cc1 [Compound 42, (Z)-3-fluoro-4-(p-tolylsulfonyl)but-2-en-1-amine hydrochloride] | 
20 | < 10 µM | < 1000 nM | NC/C=C(\F)CS(=O)(=O)c1ccc(Cl)cc1 [Compound 27, (Z)-4-(4-chlorophenylsulfonyl)-3-fluorobut-2-en-1-amine hydrochloride] | 
21 | < 10 µM | < 1000 nM | Cc1ccncc1S(=O)(=O)C/C(F)=C/CN [Compound 48, (Z)-3-fluoro-4-(4-methylpyridin-3-ylsulfonyl)but-2-en-1-amine dihydrochloride] | 
22 | < 10 µM | < 1000 nM | Cc1ccc(S(=O)(=O)C/C(F)=C/CN)nc1 [Compound 35, (Z)-3-fluoro-4-(5-methylpyridin-2-ylsulfonyl)but-2-en-1-amine dihydrochloride] | 
23 | < 10 µM | < 1000 nM | NC/C=C(\F)CS(=O)(=O)c1cccc(Cl)c1 [Compound 26, (Z)-4-(3-chlorophenylsulfonyl)-3-fluorobut-2-en-1-amine hydrochloride] | 
24 | < 10 µM | < 1000 nM | NC/C=C(\F)CS(=O)(=O)c1ccc(F)cc1 [Compound 39, (Z)-3-fluoro-4-(4-fluorophenylsulfonyl)but-2-en-1-amine hydrochloride] | 
